In patent US9073975B2, “Cyclic peptides, their preparation and their use as inhibitors of the platelet adhesion” (SANOFI, priority 2010, dated 2015):
Non-standard residues stand in square brackets, D forms with d. Residues, ends and D or L forms follow the SMILES beside them. tBuAla = CC(C)(C)C[C@H](N)C(=O)O; Chg = N[C@H](C(=O)O)C1CCCCC1; Ac6c = NC1(C(=O)O)CCCCC1; Nle = CCCC[C@H](N)C(=O)O; Orn = NCCC[C@H](N)C(=O)O; Dab = NCC[C@H](N)C(=O)O; Nva = CCC[C@H](N)C(=O)O; Abu = CC[C@H](N)C(=O)O; Dap = NC[C@H](N)C(=O)O; Ahp = NCCCCCCC(=O)O

Each compound was assayed against T1, recombinant human vWF-A1 domain (Homo sapiens, UniProt P07359) (assay: Static human platelet adhesion to recombinant human vWF-A1 domain). Conditions: washed calcein AM labeled human platelets, static conditions, 1.5 h adhesion; read-out: Activity (IC50 for inhibition of the binding of platelets to vWF A1 domain).
T1 construct: whole blood drawn from voluntary donors; made in house; host or cells: E. coli (vWF-A1); washed platelets from human donor blood (GPIb, endogenous)
Type: cell-based
Experimental: The activity of compounds of the formula I can be shown by procedures known in the art, for example by determining their inhibition of the binding of platelets to vWF A1 domain in an appropriate assay. To this end, assay plates can be coated with vWF-A1 domain. […] Then fluorescence-labeled thrombocytes are added and incubated for 90 minutes. In a complex washing procedure all non-bound thrombocytes are removed and the plates are measured, for example in a laser-based reader Acumen Explorer or a bulk reader like Spectramax. […] To assess the effect of compounds on the interaction of the GPIb complex on platelets with vWF, an assay system was used measuring binding of human platelets to recombinant human vWF-A1 domain under static conditions in the presence and absence of the compounds. […] Platelet rich plasma was carefully removed, transferred to a fresh container and spun down for 15 min at 120 g. Platelet rich plasma was carefully transferred again to fresh containers, PGE1 (0.5 μg/ml, Sigma) was added and the suspension was allowed to rest for 5 min. This was followed by another centrifugation step for 15 min at 360 g. The supernatant was discarded and the cell pellets were carefully resuspended in tyrode buffer (NaCl, 137 mM (Sigma S-3014); KCl, 2.7 mM (Sigma P-9541); NaHCO3,12 mM ([…] 31437); NaH2PO4×2H2O, 0.36 mM (Merck 6345); […] After 5 min of resting the suspension was spun down for 15 min at 300 g. The supernatant was discarded and the pellets were carefully resuspended in TBS buffer (Tris-HCl, 50 mM (Fluka 93371); NaCl, 120 mM (Sigma S-3014); KCl, 2.7 mM (Sigma P-9541); CaCl2, 0.05 mM (Sigma C-3306); MgCl2×6 H2O, 2 mM (Sigma M-2670); […] The platelet count was adjusted to 2×10^5 cells/μl, and the suspensions from individual donors were pooled at this stage. The platelets were allowed to rest for 30 min at room temperature before calcein AM (2.5 μM per 2×10^5 cells/μl (Molecular Probes C-3099)) was added. This was followed by 15 min incubation in the dark. Cells were diluted to 5×10^4 cells/μl and ReoPro (3 μg/ml (Centocor B. V., Leiden, N L)) was added, followed by a 10 min incubation period in the dark before adding the platelets to the assay plates. 96 well plates (Greiner hb, black, clear bottom, F, 655097) were coated with human recombinant vWF-A1 domain (1.5 μg/well, AA 475-706, expressed in E. coli) in Tris buffer (pH 7.4; Tris-HCl, 25 mM; NaCl, 150 mM) and incubated for 1 h at room temperature. After washing the wells 3× with TBS, blocking buffer (TBS with 5% BSA) was added followed by an incubation for 1 h. The wells were washed again 3× with TBS before 200 μl TBS were added to each well, preventing them from drying out. TBS was flicked out and serial dilutions of the test compound were added. The washed and calcein AM labeled thrombocytes were added to the wells (2.5×10^6 cells/well). Following an adhesion period of 1.5 h in the dark the wells were washed 3× with TBS. Measurement of fluorescence per well was performed in a SpectraMax M5 reader (Molecular Devices). From the raw data % inhibition and IC50 values were calculated.

T1 sequence (P07359 17-652): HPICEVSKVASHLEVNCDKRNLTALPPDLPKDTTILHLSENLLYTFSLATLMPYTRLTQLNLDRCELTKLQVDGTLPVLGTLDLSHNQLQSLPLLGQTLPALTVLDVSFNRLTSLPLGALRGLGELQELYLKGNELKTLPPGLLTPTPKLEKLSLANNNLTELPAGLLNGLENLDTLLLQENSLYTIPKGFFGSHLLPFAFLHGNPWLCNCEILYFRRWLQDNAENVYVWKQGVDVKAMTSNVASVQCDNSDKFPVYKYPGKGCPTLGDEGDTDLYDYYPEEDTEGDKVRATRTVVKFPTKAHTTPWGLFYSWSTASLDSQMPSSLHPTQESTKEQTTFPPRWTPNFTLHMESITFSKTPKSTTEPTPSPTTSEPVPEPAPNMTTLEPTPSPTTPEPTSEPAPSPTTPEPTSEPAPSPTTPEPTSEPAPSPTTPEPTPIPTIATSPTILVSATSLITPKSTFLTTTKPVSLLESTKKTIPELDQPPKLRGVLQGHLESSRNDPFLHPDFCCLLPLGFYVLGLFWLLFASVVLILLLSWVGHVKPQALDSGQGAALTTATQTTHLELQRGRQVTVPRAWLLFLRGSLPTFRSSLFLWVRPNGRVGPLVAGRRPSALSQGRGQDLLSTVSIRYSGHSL
T1 sequence (P13224 26-206 partner): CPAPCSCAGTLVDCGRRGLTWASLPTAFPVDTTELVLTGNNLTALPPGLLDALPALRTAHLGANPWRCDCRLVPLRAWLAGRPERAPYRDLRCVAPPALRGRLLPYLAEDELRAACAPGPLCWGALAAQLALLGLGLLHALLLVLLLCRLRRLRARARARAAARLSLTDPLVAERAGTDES
T1 sequence (P14770 17-177 partner): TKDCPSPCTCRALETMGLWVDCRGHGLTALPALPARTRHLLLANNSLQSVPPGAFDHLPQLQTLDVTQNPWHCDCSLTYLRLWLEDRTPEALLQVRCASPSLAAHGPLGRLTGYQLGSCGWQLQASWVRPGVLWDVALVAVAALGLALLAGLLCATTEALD

CSCC[C@@H]1NC(=O)[C@H](CCCNC(=N)N)NC(=O)[C@H](CCC(=O)O)NC(=O)[C@H](CCN)NC(=O)CCCCCCNC(=O)[C@H](CC(C)C)NC(=O)[C@H](CC(N)=O)NC(=O)[C@H](Cc2c[nH]cn2)NC(=O)[C@H](CC(C)C)NC(=O)[C@H](C)NC1=O [Example 24, Cyclo[Leu-His-Asn-Leu-NH—(CH2)6—CO-Dbu-Glu-Arg-Met-Ala]] (cyclo(ALHNL[Ahp][Dab]ERM)) and CSCC[C@@H]1NC(=O)[C@H](CCCNC(=N)N)NC(=O)[C@H](CCC(=O)O)NC(=O)[C@H](CCC(N)=O)NC(=O)CCCCCCNC(=O)[C@H](CC(C)C)NC(=O)[C@H](CC(N)=O)NC(=O)[C@H](Cc2c[nH]cn2)NC(=O)[C@H](CC(C)C)NC(=O)[C@H](C)NC1=O [Example 25, Cyclo[Leu-His-Asn-Leu-NH—(CH2)6—CO-Gln-Glu-Arg-Met-Ala]] (cyclo(ALHNL[Ahp]QERM)) cannot be ordered by IC50: less than 1000 nM for the first, less than 1000 nM for the second.

First: CSCC[C@@H]1NC(=O)[C@H](CCCN)NC(=O)[C@H](CCC(=O)O)NC(=O)[C@H]([C@@H](C)O)NC(=O)CCCCCCNC(=O)[C@H](CC(C)C)NC(=O)[C@H](CC(N)=O)NC(=O)[C@H](Cc2c[nH]cn2)NC(=O)[C@H](CC(C)C)NC(=O)[C@H](C)NC1=O [Example 28, Cyclo[Leu-His-Asn-Leu-NH—(CH2)6—CO-Thr-Glu-Orn-Met-Ala]] (cyclo(ALHNL[Ahp]TE[Orn]M))
Second: CSCC[C@@H]1NC(=O)[C@H](CN)NC(=O)[C@H](CCC(=O)O)NC(=O)[C@H]([C@@H](C)O)NC(=O)CCCCCCNC(=O)[C@H](CC(C)C)NC(=O)[C@H](CC(N)=O)NC(=O)[C@H](Cc2c[nH]cn2)NC(=O)[C@H](CC(C)C)NC(=O)[C@H](C)NC1=O [Example 29, Cyclo[Leu-His-Asn-Leu-NH—(CH2)6—CO-Thr-Glu-Dpr-Met-Ala]] (cyclo(ALHNL[Ahp]TE[Dap]M))
The IC50 of the first is lower: less than 1000 nM for the first, 1000 to 10000 nM for the second. The first is the more potent here.

CSCC[C@@H]1NC(=O)[C@H](CCCNC(=N)N)NC(=O)[C@H](CCC(=O)O)NC(=O)[C@H]([C@@H](C)O)NC(=O)CCCCCCNC(=O)[C@H](CC(C)C)NC(=O)[C@H](CC(N)=O)NC(=O)[C@H](Cc2c[nH]cn2)NC(=O)[C@H](CC(C)C)NC(=O)[C@H](CCCNC(=N)N)NC1=O [Example 30, Cyclo[Leu-His-Asn-Leu-NH—(CH2)6—CO-Thr-Glu-Arg-Met-Arg]] (cyclo([Ahp]TERMRLHNL)) and CCC[C@@H]1NC(=O)[C@H](CCSC)NC(=O)[C@H](CCCNC(=N)N)NC(=O)[C@H](CCC(=O)O)NC(=O)[C@H]([C@@H](C)O)NC(=O)CCCCCCNC(=O)[C@H](CC(C)C)NC(=O)[C@H](CC(N)=O)NC(=O)[C@H](Cc2c[nH]cn2)NC(=O)[C@H](CC(C)C)NC1=O [Example 31, Cyclo[Leu-His-Asn-Leu-NH—(CH2)6—CO-Thr-Glu-Arg-Met-Nva]] (cyclo([Ahp]TERM[Nva]LHNL)) fall in the same range of IC50: 1000 to 10000 nM for the first, 1000 to 10000 nM for the second.

First: CSCC[C@@H]1NC(=O)[C@H](CCCNC(=N)N)NC(=O)[C@H](CCC(=O)O)NC(=O)[C@H]([C@@H](C)O)NC(=O)CCCCCCNC(=O)[C@H](CC(C)C)NC(=O)[C@H](CC(N)=O)NC(=O)[C@H](Cc2c[nH]cn2)NC(=O)[C@H](CC(C)C)NC(=O)[C@H](CN)NC1=O [Example 32, Cyclo[Leu-His-Asn-Leu-NH—(CH2)6—CO-Thr-Glu-Arg-Met-Dpr]] (cyclo([Ahp]TERM[Dap]LHNL))
Second: CSCC[C@@H]1NC(=O)[C@H](CCCNC(=N)N)NC(=O)[C@H](CCC(=O)O)NC(=O)[C@H]([C@@H](C)O)NC(=O)CCCCCCNC(=O)[C@H](CC(C)C)NC(=O)[C@H](CC(N)=O)NC(=O)[C@@H](Cc2c[nH]cn2)NC(=O)[C@H](CC(C)C)NC(=O)[C@H](C)NC1=O [Example 33, Cyclo[Leu-D-His-Asn-Leu-NH—(CH2)6—CO-Thr-Glu-Arg-Met-Ala]] (cyclo(AL[dH]NL[Ahp]TERM))
The IC50 of the first is lower: less than 1000 nM for the first, 1000 to 10000 nM for the second. The first is the more potent here.

First: CSCC[C@@H]1NC(=O)[C@H](CCCNC(=N)N)NC(=O)[C@H](CCC(=O)O)NC(=O)[C@H]([C@@H](C)O)NC(=O)CCCCCCNC(=O)[C@H](CC(C)C)NC(=O)[C@H](CC(N)=O)NC(=O)[C@H](CCCN)NC(=O)[C@H](CC(C)C)NC(=O)[C@H](C)NC1=O [Example 34, Cyclo[Leu-Orn-Asn-Leu-NH—(CH2)6—CO-Thr-Glu-Arg-Met-Ala]] (cyclo(AL[Orn]NL[Ahp]TERM))
Second: CCCC[C@@H]1NC(=O)[C@H](CCCNC(=N)N)NC(=O)[C@H](CCC(=O)O)NC(=O)[C@H]([C@@H](C)O)NC(=O)CCCCCCNC(=O)[C@H](CC(C)C)NC(=O)[C@H](CC(N)=O)NC(=O)[C@H](Cc2c[nH]cn2)NC(=O)[C@H](CC(C)C)NC(=O)[C@H](C)NC1=O [Example 43, Cyclo[Leu-His-Asn-Leu-NH—(CH2)6—CO-Thr-Glu-Arg-Nle-Ala]] (cyclo(ALHNL[Ahp]TER[Nle]))
The IC50 of the first is higher: 1000 to 10000 nM for the first, less than 1000 nM for the second.

CSCC[C@@H]1NC(=O)[C@H](CCCNC(=N)N)NC(=O)[C@H](CCC(=O)O)NC(=O)[C@H]([C@@H](C)O)NC(=O)CCCCCCNC(=O)[C@H](CC(C)C)NC(=O)[C@H](CC(N)=O)NC(=O)[C@H](Cc2c[nH]cn2)NC(=O)[C@H](CC(C)(C)C)NC(=O)[C@H](C)NC1=O [Example 36, Cyclo[Npg-His-Asn-Leu-NH—(CH2)6—CO-Thr-Glu-Arg-Met-Ala]] (cyclo(A[tBuAla]HNL[Ahp]TERM)) and CC[C@@H]1NC(=O)[C@H](CCCNC(=N)N)NC(=O)[C@H](CCC(=O)O)NC(=O)[C@H]([C@@H](C)O)NC(=O)CCCCCCNC(=O)[C@H](CC(C)C)NC(=O)[C@H](CC(N)=O)NC(=O)[C@H](Cc2c[nH]cn2)NC(=O)[C@H](CC(C)C)NC(=O)[C@H](C)NC1=O [Example 42, Cyclo[Leu-His-Asn-Leu-NH—(CH2)6—CO-Thr-Glu-Arg-Abu-Ala]] (cyclo(ALHNL[Ahp]TER[Abu])) cannot be ordered by IC50: less than 1000 nM for the first, less than 1000 nM for the second.

CSCC[C@@H]1NC(=O)[C@H](CCCNC(=N)N)NC(=O)[C@H](CCC(=O)O)NC(=O)[C@H]([C@@H](C)O)NC(=O)CCCCCCNC(=O)[C@H](CC(C)C)NC(=O)[C@H](CC(N)=O)NC(=O)[C@H](Cc2c[nH]cn2)NC(=O)C2(CCCCC2)NC(=O)[C@H](C)NC1=O [Example 37, Cyclo[Ac6-His-Asn-Leu-NH—(CH2)6—CO-Thr-Glu-Arg-Met-Ala]] (cyclo(A[Ac6c]HNL[Ahp]TERM)) and CC(C)C[C@@H]1NC(=O)[C@H](C)NC(=O)[C@H](C2CCCCC2)NC(=O)[C@H](CCCNC(=N)N)NC(=O)[C@H](CCC(=O)O)NC(=O)[C@H]([C@@H](C)O)NC(=O)CCCCCCNC(=O)[C@H](CC(C)C)NC(=O)[C@H](CC(N)=O)NC(=O)[C@H](Cc2c[nH]cn2)NC1=O [Example 39, Cyclo[Leu-His-Asn-Leu-NH—(CH2)6—CO-Thr-Glu-Arg-Chg-Ala]] (cyclo(ALHNL[Ahp]TER[Chg])) fall in the same range of IC50: 1000 to 10000 nM for the first, 1000 to 10000 nM for the second.

CC(C)C[C@@H]1NC(=O)[C@H](C)NC(=O)[C@H](CC(C)C)NC(=O)[C@H](CCCNC(=N)N)NC(=O)[C@H](CCC(=O)O)NC(=O)[C@H]([C@@H](C)O)NC(=O)CCCCCCNC(=O)[C@H](CC(C)C)NC(=O)[C@H](CC(N)=O)NC(=O)[C@H](Cc2c[nH]cn2)NC1=O [Example 38, Cyclo[Leu-His-Asn-Leu-NH—(CH2)6—CO-Thr-Glu-Arg-Leu-Ala]] (cyclo(ALHNL[Ahp]TERL)) and CC(C)C[C@@H]1NC(=O)[C@H](C)NC(=O)[C@H](C)NC(=O)[C@H](CCCNC(=N)N)NC(=O)[C@H](CCC(=O)O)NC(=O)[C@H]([C@@H](C)O)NC(=O)CCCCCCNC(=O)[C@H](CC(C)C)NC(=O)[C@H](CC(N)=O)NC(=O)[C@H](Cc2c[nH]cn2)NC1=O [Example 40, Cyclo[Leu-His-Asn-Leu-NH—(CH2)6—CO-Thr-Glu-Arg-Ala-Ala]] (cyclo(AALHNL[Ahp]TER)) cannot be ordered by IC50: less than 1000 nM for the first, less than 1000 nM for the second.

Work on CC(C)C[C@@H]1NC(=O)[C@H](C)NC(=O)[C@H](CCC(N)=O)NC(=O)[C@H](CCCNC(=N)N)NC(=O)[C@H](CCC(=O)O)NC(=O)[C@H]([C@@H](C)O)NC(=O)CCCCCCNC(=O)[C@H](CC(C)C)NC(=O)[C@H](CC(N)=O)NC(=O)[C@H](Cc2c[nH]cn2)NC1=O [Example 41, Cyclo[Leu-His-Asn-Leu-NH—(CH2)6—CO-Thr-Glu-Arg-Gln-Ala]] (cyclo(ALHNL[Ahp]TERQ)) yielded an IC50 of less than 1000 nM.
